From ChEMBL document CHEMBL1159126, “Salicylanilide carbamates: antitubercular agents active against multidrug-resistant Mycobacterium tuberculosis strains” (Bioorg Med Chem, 2010)
In brackets after ≈: the same amount, converted by molar mass.

Key:
Mycobacterium avium [1] = test: Antimycobacterial activity against Mycobacterium avium 330/88 after 21 days by micromethod; type: functional; details: 330/88, 504 h
Mycobacterium kansasii [2] = test: Antimycobacterial activity against Mycobacterium kansasii 235/80 after 14 days by micromethod; type: functional; details: 235/80, 336 h
Mycobacterium kansasii [3] = test: Antimycobacterial activity against Mycobacterium kansasii 235/80 after 21 days by micromethod; type: functional; details: 235/80, 504 h
[4] = Partition coefficient, log P of the compound; type: physicochemical; details: octanol/water
Mycobacterium kansasii [5] = test: Antimycobacterial activity against Mycobacterium kansasii 6509/96 after 14 days by micromethod; type: functional; details: 6509/96, 336 h
Mycobacterium kansasii [6] = test: Antimycobacterial activity against Mycobacterium kansasii 6509/96 after 21 days by micromethod; type: functional; details: 6509/96, 504 h
Mycobacterium avium [7] = test: Antimycobacterial activity against Mycobacterium avium 330/88 after 14 days by micromethod; type: functional; details: 330/88, 336 h
[8] = test system: Mycobacterium tuberculosis; test: microbe, parasite or virus in culture; details: 331/88, 336 h
Description: Antimycobacterial activity against Mycobacterium tuberculosis 331/88 after 14 days by micromethod

[9] = test system: Mycobacterium tuberculosis; test: microbe, parasite or virus in culture; details: 331/88, 504 h
Description: Antimycobacterial activity against Mycobacterium tuberculosis 331/88 after 21 days by micromethod

[10] = Toxicity against human HCT8 cells after 72 hrs by XTT assay; type: cell-based, HCT-8

| SMILES | MIC (Mycobacterium avium [1]) | MIC (Mycobacterium kansasii [2]) | MIC (Mycobacterium kansasii [3]) | logP [4] | MIC (Mycobacterium kansasii [5]) | MIC (Mycobacterium kansasii [6]) | MIC (Mycobacterium avium [7]) | MIC [8] | MIC [9] | EC50 at 72 h [10] |
| --- | --- | --- | --- | --- | --- | --- | --- | --- | --- | --- |
| CCCCCCCCCNC(=O)Oc1ccc(Cl)cc1C(=O)Nc1ccc(Cl)cc1 | 16 µM (≈ 7.22 µg/mL) | 4 µM (≈ 1.81 µg/mL) | 4 µM (≈ 1.81 µg/mL) | 6.78 | 4 µM (≈ 1.81 µg/mL) | 4 µM (≈ 1.81 µg/mL) | 8 µM (≈ 3.61 µg/mL) | 2 µM (≈ 0.903 µg/mL) | 2 µM (≈ 0.903 µg/mL) |  |
| CCCCCCCCCCNC(=O)Oc1ccc(Cl)cc1C(=O)Nc1ccc(Cl)cc1 | 8 µM (≈ 3.72 µg/mL) | 8 µM (≈ 3.72 µg/mL) | 8 µM (≈ 3.72 µg/mL) | 7.19 | 8 µM (≈ 3.72 µg/mL) | 8 µM (≈ 3.72 µg/mL) | 8 µM (≈ 3.72 µg/mL) | 2 µM (≈ 0.931 µg/mL) | 2 µM (≈ 0.931 µg/mL) |  |
| CCCCCCCNC(=O)Oc1ccc(Cl)cc1C(=O)Nc1ccc(Cl)cc1 | 8 µM (≈ 3.39 µg/mL) | 8 µM (≈ 3.39 µg/mL) | 8 µM (≈ 3.39 µg/mL) | 5.94 | 4 µM (≈ 1.69 µg/mL) | 4 µM (≈ 1.69 µg/mL) | 8 µM (≈ 3.39 µg/mL) | 2 µM (≈ 0.847 µg/mL) | 2 µM (≈ 0.847 µg/mL) |  |
| CCCCCCCNC(=O)Oc1ccc(Cl)cc1C(=O)Nc1cccc(Cl)c1 | 8 µM (≈ 3.39 µg/mL) | 4 µM (≈ 1.69 µg/mL) | 8 µM (≈ 3.39 µg/mL) | 5.94 | 8 µM (≈ 3.39 µg/mL) | 8 µM (≈ 3.39 µg/mL) | 8 µM (≈ 3.39 µg/mL) | 1 µM (≈ 0.423 µg/mL) | 2 µM (≈ 0.847 µg/mL) |  |
| CCCCCCCNC(=O)Oc1ccc(Cl)cc1C(=O)Nc1ccc(Cl)c(Cl)c1 | 8 µM (≈ 3.66 µg/mL) | 2 µM (≈ 0.916 µg/mL) | 2 µM (≈ 0.916 µg/mL) | 6.5 | 2 µM (≈ 0.916 µg/mL) | 4 µM (≈ 1.83 µg/mL) | 4 µM (≈ 1.83 µg/mL) | 0.5 µM (≈ 0.229 µg/mL) | 1 µM (≈ 0.458 µg/mL) | 43.4 µM |
| CCCCCCCCNC(=O)Oc1ccc(Cl)cc1C(=O)Nc1ccc(Cl)c(Cl)c1 | 8 µM (≈ 3.77 µg/mL) | 2 µM (≈ 0.944 µg/mL) | 4 µM (≈ 1.89 µg/mL) | 6.92 | 2 µM (≈ 0.944 µg/mL) | 4 µM (≈ 1.89 µg/mL) | 4 µM (≈ 1.89 µg/mL) | 0.5 µM (≈ 0.236 µg/mL) | 1 µM (≈ 0.472 µg/mL) | 48.5 µM |
| CCCCCCCCCNC(=O)Oc1ccc(Cl)cc1C(=O)Nc1ccc(Cl)c(Cl)c1 | 8 µM (≈ 3.89 µg/mL) | 8 µM (≈ 3.89 µg/mL) | 8 µM (≈ 3.89 µg/mL) | 7.34 | 4 µM (≈ 1.94 µg/mL) | 4 µM (≈ 1.94 µg/mL) | 8 µM (≈ 3.89 µg/mL) | 2 µM (≈ 0.972 µg/mL) | 2 µM (≈ 0.972 µg/mL) |  |
| CCCCCCCCNC(=O)Oc1ccc(Cl)cc1C(=O)Nc1ccc(Cl)cc1 | 8 µM (≈ 3.5 µg/mL) | 8 µM (≈ 3.5 µg/mL) | 8 µM (≈ 3.5 µg/mL) | 6.36 | 4 µM (≈ 1.75 µg/mL) | 4 µM (≈ 1.75 µg/mL) | 8 µM (≈ 3.5 µg/mL) | 2 µM (≈ 0.875 µg/mL) | 2 µM (≈ 0.875 µg/mL) |  |
| CCCCCCCCCCCNC(=O)Oc1ccc(Cl)cc1C(=O)Nc1cccc(Cl)c1 | 8 µM (≈ 3.84 µg/mL) | 8 µM (≈ 3.84 µg/mL) | 8 µM (≈ 3.84 µg/mL) | 7.61 | 8 µM (≈ 3.84 µg/mL) | 8 µM (≈ 3.84 µg/mL) | 8 µM (≈ 3.84 µg/mL) | 2 µM (≈ 0.959 µg/mL) | 2 µM (≈ 0.959 µg/mL) |  |
| CCCCCCCCCCNC(=O)Oc1ccc(Cl)cc1C(=O)Nc1ccc(Cl)c(Cl)c1 | 8 µM (≈ 4 µg/mL) | 4 µM (≈ 2 µg/mL) | 4 µM (≈ 2 µg/mL) | 7.77 | 2 µM (≈ 1 µg/mL) | 4 µM (≈ 2 µg/mL) | 8 µM (≈ 4 µg/mL) | 2 µM (≈ 1 µg/mL) | 2 µM (≈ 1 µg/mL) |  |
| CCCCNC(=O)Oc1ccc(Cl)cc1C(=O)Nc1ccc(Cl)cc1 | 8 µM (≈ 3.05 µg/mL) | 4 µM (≈ 1.53 µg/mL) | 4 µM (≈ 1.53 µg/mL) | 4.69 | 2 µM (≈ 0.763 µg/mL) | 4 µM (≈ 1.53 µg/mL) | 4 µM (≈ 1.53 µg/mL) | 2 µM (≈ 0.763 µg/mL) | 2 µM (≈ 0.763 µg/mL) |  |
| CCCCCCNC(=O)Oc1ccc(Cl)cc1C(=O)Nc1cccc(Cl)c1 | 8 µM (≈ 3.27 µg/mL) | 4 µM (≈ 1.64 µg/mL) | 4 µM (≈ 1.64 µg/mL) | 5.53 | 4 µM (≈ 1.64 µg/mL) | 4 µM (≈ 1.64 µg/mL) | 8 µM (≈ 3.27 µg/mL) | 0.5 µM (≈ 0.205 µg/mL) | 1 µM (≈ 0.409 µg/mL) | 14.9 µM |
| CCCCCCCCNC(=O)Oc1ccc(Cl)cc1C(=O)Nc1cccc(Cl)c1 | 4 µM (≈ 1.75 µg/mL) | 8 µM (≈ 3.5 µg/mL) | 8 µM (≈ 3.5 µg/mL) | 6.36 | 4 µM (≈ 1.75 µg/mL) | 8 µM (≈ 3.5 µg/mL) | 4 µM (≈ 1.75 µg/mL) | 2 µM (≈ 0.875 µg/mL) | 2 µM (≈ 0.875 µg/mL) |  |
| NNC(=O)c1ccncc1 [ISONIAZID] | > 250 µM | > 250 µM | > 250 µM |  | 4 µM (≈ 0.549 µg/mL) | 4 µM (≈ 0.549 µg/mL) | > 250 µM | 0.5 µM (≈ 0.0686 µg/mL) | 0.5 µM (≈ 0.0686 µg/mL) | > 100 µM |
